The assay has as its target T1, α-amylase.
T1 construct: gene AMY2; porcine pancreas is only a guess from usual DNSA assay practice
Description: DNSA alpha-amylase inhibition assay, nonlinear regression. The assay is classed as biochemical. To be noted: enzyme source, substrate, pH and temperature not stated; triplicate.

Consider 1 molecule from publication PMC12376908, “Synthesis and radiolabelled evaluation of novel pyrimidine derivatives as dual α-amylase inhibitors and GIT-targeted molecular imaging probe” (RSC Advances, 2025).

In general, IC50 refers to the midpoint of a concentration-inhibition curve. Read a high IC50 as weaker potency.

Molecules are shown by their SMILES. Converted amounts (≈) assume the structure as drawn.

`CC(=O)C1=C(O)C=C2NC(=O)NC3=CC(O)=C(C(C)=O)C1(c1ccccc1)C23` (stereo not shown) [compound 1, 1,1′-(5,8-Dihydroxy-2-oxo-6a-phenyl-2,3,3a1,6a-tetrahydro-1H-perimidine-6,7-diyl)bis(ethan-1-one)] returned a half-inhibitory concentration (IC50) of 34.60 ± 1.43 µg/mL (≈ 91.4 µM).
